{"source": "BindingDB's records for patent US12415816", "about": "(Dana-Farber Cancer Institute, 2025)", "biological_target": "Tyrosine-protein kinase JAK2 (Homo sapiens, UniProt O60674)", "sequence (O60674 whole entry)": "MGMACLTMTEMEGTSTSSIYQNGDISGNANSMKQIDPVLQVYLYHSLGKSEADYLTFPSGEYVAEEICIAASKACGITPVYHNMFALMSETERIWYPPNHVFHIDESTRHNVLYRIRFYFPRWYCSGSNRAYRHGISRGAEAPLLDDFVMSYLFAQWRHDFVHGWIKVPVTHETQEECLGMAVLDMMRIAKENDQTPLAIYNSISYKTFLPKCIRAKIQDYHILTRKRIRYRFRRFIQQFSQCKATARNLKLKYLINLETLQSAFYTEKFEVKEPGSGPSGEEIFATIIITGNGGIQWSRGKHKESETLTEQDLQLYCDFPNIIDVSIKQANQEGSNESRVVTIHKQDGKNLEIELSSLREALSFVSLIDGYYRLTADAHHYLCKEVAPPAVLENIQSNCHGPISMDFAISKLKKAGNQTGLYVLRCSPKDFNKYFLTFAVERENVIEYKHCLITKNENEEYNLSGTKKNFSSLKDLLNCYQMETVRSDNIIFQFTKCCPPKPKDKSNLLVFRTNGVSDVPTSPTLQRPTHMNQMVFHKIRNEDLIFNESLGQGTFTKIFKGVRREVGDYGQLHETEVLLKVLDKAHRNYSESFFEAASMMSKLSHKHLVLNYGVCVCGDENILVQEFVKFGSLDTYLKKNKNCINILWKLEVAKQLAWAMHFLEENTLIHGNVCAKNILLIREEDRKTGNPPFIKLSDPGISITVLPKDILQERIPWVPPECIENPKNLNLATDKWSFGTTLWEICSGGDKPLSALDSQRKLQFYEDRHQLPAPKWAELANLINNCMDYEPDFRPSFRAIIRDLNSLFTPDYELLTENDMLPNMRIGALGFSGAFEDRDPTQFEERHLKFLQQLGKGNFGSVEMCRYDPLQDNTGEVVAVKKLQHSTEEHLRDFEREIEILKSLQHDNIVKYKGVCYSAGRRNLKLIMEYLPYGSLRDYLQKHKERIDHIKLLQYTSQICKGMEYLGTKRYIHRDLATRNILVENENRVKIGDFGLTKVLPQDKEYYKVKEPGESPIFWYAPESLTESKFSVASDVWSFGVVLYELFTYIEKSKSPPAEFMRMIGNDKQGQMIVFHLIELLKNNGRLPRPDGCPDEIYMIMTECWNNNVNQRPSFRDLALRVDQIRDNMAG", "experiment": "Biochemical Assay", "description": "The JAK2 Z-Lyte biochemical assay was performed according to manufacturer's instructions (Life Technologies)."}
{"smiles": "CCN1CCN(Cc2cc(NC(=O)Nc3ccc(C)c(Oc4ccc5nc(NC(=O)C6CC6)sc5n4)c3)cc(C(F)(F)F)c2)CC1", "note": "[US12415816, Compound I-18]", "values": [{"measurement": "IC50", "value": 1.45, "unit": "µM"}]}
